According to US9771372B2, “Compounds useful as S100-inhibitors” (Active Biotech AB, priority 2014, dated 2017):

Molecular target: T1, interaction between biotinylated human S100A9 and human RAGE-Fc (Homo sapiens, UniProt P06702)
T1 construct: made in house; host or cells: E. coli BL21(DE3)/pET1120 (pLR757)
T1 sequence (P06702 1-114): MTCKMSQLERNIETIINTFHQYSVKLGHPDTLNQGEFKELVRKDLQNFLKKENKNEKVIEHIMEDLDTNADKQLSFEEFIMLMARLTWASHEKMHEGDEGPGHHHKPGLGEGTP
Experiment: AlphaScreen inhibition assay, Biot-hS100A9:hRAGE-Fc (S100A9-RAGE inhibition assay)
Type: binding
Settings: biot-hS100A9 and rhRAGE-Fc, Ca2+ and Zn2+ in buffer
From the text: FIG. 1 is a schematic representation of an assay of the inhibition of the interaction between biotinylated human S100A9 and human RAGE-Fc using a small molecule S100A9 binder.
Inhibition Assay, Biot-hS100A9:hRAGE-Fc
The AlphaScreen (Amplified Luminescent Proximity Homogeneous Assay) contains two types of beads, Alpha Donor beads and Acceptor beads (PerkinElmer). Upon laser excitation at 680 nm a photosensitizer in the Donor bead converts ambient oxygen to a more excited singlet state. The singlet oxygen molecule diffuses (maximum 200 nm) to react with a thioxene derivative in the Acceptor bead and generates a chemiluminescence reaction. Fluorophores in the Acceptor bead subsequently emit light at 520-620 nm which can be detected in the EnVision® Multilabel plate Reader (PerkinElmer). The beads are light sensitive and all work with the beads is performed under subdued light conditions or using green filters on light sources (Roscolux Chroma Green #389, Rosco).
In the AlphaScreen Inhibition Assay described here, protein A (Staphylococcus aureus) conjugated Acceptor beads are used together with streptavidin coated Donor beads (Perkin Elmer 6760617M). The Acceptor beads are pre-incubated with Fc-tagged recombinant human RAGE (rhRAGE-Fc) allowing binding of the rhRAGE-Fc to protein A on the beads. Biotinylated human S100A9 (biot-hS100A9) is pre-incubated with the low molecular test compounds. The pre-mixes are then added to the wells of a micro-plate and incubated allowing interaction between biot-hS100A9 and rhRAGE-Fc. Subsequent addition of streptavidin coated Donor beads causes binding of the streptavidin to the biotinylated hS100A9. After an additional incubation the signal is measured.
Without inhibitory compounds, the interaction of biot-hS100A9 to rhRAGE-Fc will bring the Acceptor and Donor beads in close proximity thus generating a high signal. With an inhibitor present the complex will not form resulting in a decreased signal.
The AlphaScreen assay method is used for screening of the inhibitory effect of different compound samples at fixed concentrations or for IC50 determination by varying the compound concentrations. Samples of test compounds and references are prepared from solutions in DMSO. Relevant reference inhibitors and DMSO are used as controls for defined inhibition and non-inhibition, respectively in the assay. The percent inhibition in assay for test compounds and references are calculated by comparing their obtained assay signals with the signal values for the control with only DMSO (no compound).
Assay concentration of biotinylated hS100A9 and rhRAGE-Fc are batch dependent, and are determined and defined by separate cross-titration experiments using this AlphaScreen inhibition method to verify the optimal setup regarding signal strength and achievement of a defined inhibition with relevant reference compounds. The Final assay concentrations of Acceptor and Donor beads are 20 μg/mL.
Assay buffer is prepared by adding CaCl2 and ZnCl2 to HBS-P and is used freshly prepared in the experiment.
Biotin-hS100A9 solution for the experiment is prepared by dilution of appropriate amount of stock solution biot-hS100A9 in assay buffer (with CaCl2 and ZnCl2) and incubation in room temperature for 30 minutes.
rhRAGE-Fc solution for the experiment is prepared by dilution appropriate amount of rhRAGE-Fc stock in assay buffer.
Protein A Acceptor beads are diluted in assay buffer and are added to an equal volume of the prepared diluted rhRAGE-Fc solution. The beads are light sensitive. The vial is covered with aluminum foil and incubated at room temperature in the dark until biot-hS100A9+compound incubation is finished (see below).
Streptavidin-coated Donor beads are diluted in assay buffer. The beads are very light sensitive. The vial is covered with aluminum foil and incubated at room temperature in the dark until use (see below).
Samples of test compounds, appropriate references and DMSO control are diluted in assay buffer. […]

Row | IC50 [µM] | SMILES
1 | 1.62 | COCCNc1cccc(C(=O)NC2(C(F)(F)F)C(=O)Nc3nc4cc(C)c(C)cc4n32)n1 (stereo not shown) [Example 111, N-[10,11-dimethyl-4-oxo-3-(trifluoromethyl)-2,5,7-triazatricyclo[6.4.0.0^2,6]dodeca-1(8),6,9,11-tetraen-3-yl]-6-[(2-methoxyethyl)amino]pyridine-2-carboxamide]
2 | 1.59 | COCCN(C)c1cccc(C(=O)NC2(C(F)(F)F)C(=O)Nc3nc4cc(Cl)c(Cl)cc4n32)n1 (stereo not shown) [Example 94, N-[10,11-dichloro-4-oxo-3-(trifluoromethyl)-2,5,7-triazatricyclo[6.4.0.0^2,6]dodeca-1(8),6,9,11-tetraen-3-yl]-6-[(2-methoxyethyl)(methyl)amino]pyridine-2-carboxamide]
3 | 1.12 | CC(=O)c1cc(Cl)cc2c1nc1n2C(NC(=O)CCC2CCCC2)(C(F)(F)F)C(=O)N1 (stereo not shown) [Example 182, N-[9-acetyl-11-chloro-4-oxo-3-(trifluoromethyl)-2,5,7-triazatricyclo[6.4.0.0^2,6]dodeca-1(12),6,8,10-tetraen-3-yl]-3-cyclopentylpropanamide]
4 | 0.85 | O=C(CCC1CCCC1)NC1(C(F)(F)F)C(=O)Nc2nc3c(-c4ccc(Cl)cc4)cccc3n21 (stereo not shown) [Example 201, N-[9-(4-chlorophenyl)-4-oxo-3-(trifluoromethyl)-2,5,7-triazatricyclo[6.4.0.0^2,6]dodeca-1(12),6,8,10-tetraen-3-yl]-3-cyclopentylpropanamide]
5 | 3.9 | O=C(NC1(C(F)(F)F)C(=O)Nc2nc3cc(Cl)c(Cl)cc3n21)C1CNC1 (stereo not shown) [Example 47, N-[10,11-dichloro-4-oxo-3-(trifluoromethyl)-2,5,7-triazatricyclo[6.4.0.0^2,6]dodeca-1(12),6,8,10-tetraen-3-yl]azetidine-3-carboxamide]
6 | 1.7 | Cc1cc2nc3n(c2cc1C)C(NC(=O)CC1CCCCC1)(C(F)(F)F)C(=O)N3 (stereo not shown) [Example 20, 2-cyclohexyl-N-[10,11-dimethyl-4-oxo-3-(trifluoromethyl)-2,5,7-triazatricyclo-[6.4.0.0^2,6]dodeca-1(8),6,9,11-tetraen-3-yl]acetamide]
7 | 2 | Cc1cc2nc3n(c2cc1C)C(NC(=O)c1ccc(-c2ccccc2)cc1)(C(F)(F)F)C(=O)N3 (stereo not shown) [Example 18, N-[10,11-dimethyl-4-oxo-3-(trifluoromethyl)-2,5,7-triazatricyclo[6.4.0.0^2,6]dodeca-1(8),6,9,11-tetraen-3-yl]-4-phenylbenzamide]
8 | 0.61 | Cc1cc2nc3n(c2cc1C)C(NC(=O)[C@@H](C)Oc1cccc(Cl)c1)(C(F)(F)F)C(=O)N3 (single isomer, unassigned) [Example 212a]
9 | 2.2 | CN(C)c1cccc(C(=O)NC2(C(F)(F)F)C(=O)Nc3nc4cc(Cl)c(Cl)cc4n32)n1 (stereo not shown) [Example 65, N-[10,11-dichloro-4-oxo-3-(trifluoromethyl)-2,5,7-triazatricyclo[6.4.0.0^2,6]dodeca-1(12),6,8,10-tetraen-3-yl]-6-(dimethylamino)pyridine-2-carboxamide]
10 | 1.4 | O=C(CCC1CCCC1)NC1(C(F)(F)F)C(=O)Nc2nc3c(F)c(F)ccc3n21 (stereo not shown) [Example 82, 3-cyclopentyl-N-[9,10-difluoro-4-oxo-3-(trifluoromethyl)-2,5,7-triazatricyclo[6.4.0.0^2,6]-dodeca-1(12),6,8,10-tetraen-3-yl]propanamide]
11 | 0.94 | O=C(CCC1CCCC1)NC1(C(F)(F)F)C(=O)Nc2nc3cc(Cl)c(Cl)cc3n21 (single isomer, unassigned) [Example 219a, 3-cyclopentyl-N-[10,11-dichloro-4-oxo-3-(trifluoromethyl)-2,5,7-triazatricyclo[6.4.0.0^2,6]dodeca-1(12),6,8,10-tetraen-3-yl]propanamide]

The remaining lines, values behind:

Row | SMILES | IC50 [µM]
12 | O=C(NC1(C(F)(F)F)C(=O)Nc2nc3cc(Cl)c(Cl)cc3n21)c1ccccc1 (stereo not shown) [Example 38, N-[10,11-dichloro-4-oxo-3-(trifluoromethyl)-2,5,7-triazatricyclo[6.4.0.0^2,6]dodeca-1(8),6,9,11-tetraen-3-yl]benzamide] | 1
13 | O=C(NC1(C(F)(F)F)C(=O)Nc2nc3cc(Cl)c(Cl)cc3n21)[C@@H]1CCCN1 (mixture of isomers) [Example 41, (2S)—N-[10,11-dichloro-4-oxo-3-(trifluoromethyl)-2,5,7-triaza-tricyclo[6.4.0.0^2,6]dodeca-1(12),6,8,10-tetraen-3-yl]pyrrolidine-2-carboxamide] | 2
14 | CC(=O)N1CC(C(=O)NC2(C(F)(F)F)C(=O)Nc3nc4cc(Cl)c(Cl)cc4n32)C1 (stereo not shown) [Example 49, 1-acetyl-N-[10,11-dichloro-4-oxo-3-(trifluoromethyl)-2,5,7-triazatricyclo-[6.4.0.0^2,6]-dodeca-1(12),6,8,10-tetraen-3-yl]azetidine-3-carboxamide] | 3.9
15 | Cc1cc2nc3n(c2cc1C)C(NC(=O)c1cccc(C2CCCCC2)n1)(C(F)(F)F)C(=O)N3 (stereo not shown) [Example 36, 6-cyclohexyl-N-[10,11-dimethyl-4-oxo-3-(trifluoromethyl)-2,5,7-triazatricyclo[6.4.0.0^2,6]-dodeca-1(12),6,8,10-tetraen-3-yl]pyridine-2-carboxamide] | 3.7
16 | O=C(NC1(C(F)(F)F)C(=O)Nc2nc3ccccc3n21)c1cc(Cl)cc(Cl)c1 (stereo not shown) [Example 12, 3,5-dichloro-N-[4-oxo-3-(trifluoromethyl)-2,5,7-triazatricyclo[6.4.0.0^2,6]dodeca-1(12),6,8,10-tetraen-3-yl]benzamide] | 3
17 | O=C(NC1(C(F)(F)F)C(=O)Nc2nc3cc(Cl)c(Cl)cc3n21)C1CCCCC1 (stereo not shown) [Example 55, N-[10,11-dichloro-4-oxo-3-(trifluoromethyl)-2,5,7-triazatricyclo[6.4.0.0^2,6]dodeca-1(12),6,8,10-tetraen-3-yl]cyclohexanecarboxamide] | 1.7
18 | Cc1cc2nc3n(c2cc1C)C(NC(=O)CCCC1CCCC1)(C(F)(F)F)C(=O)N3 (stereo not shown) [Example 19, 4-cyclopentyl-N-[10,11-dimethyl-4-oxo-3-(trifluoromethyl)-2,5,7-triazatricyclo-[6.4.0.0^2,6]dodeca-1(8),6,9,11-tetraen-3-yl]butanamide] | 0.4
19 | Cc1cc2nc3n(c2cc1C)C(NC(=O)[C@@H](C)CC1CCCC1)(C(F)(F)F)C(=O)N3 (mixture of isomers) [Example 145, (2S)-3-cyclopentyl-N-[10,11-dimethyl-4-oxo-3-(trifluoromethyl)-2,5,7-triazatricyclo[6.4.0.0^2,6]dodeca-1(8),6,9,11-tetraen-3-yl]-2-methylpropanamide] | 3.12
20 | N#Cc1cccc(C(=O)NC2(C(F)(F)F)C(=O)Nc3nc4cc(Cl)c(Cl)cc4n32)c1 (stereo not shown) [Example 100, 3-cyano-N-[10,11-dichloro-4-oxo-3-(trifluoromethyl)-2,5,7-triazatricyclo[6.4.0.0^2,6]dodeca-1(8),6,9,11-tetraen-3-yl]benzamide] | 2.02
21 | Cc1cc2nc3n(c2cc1C)C(NC(=O)c1cccc(NC2CCCCC2)n1)(C(F)(F)F)C(=O)N3 (stereo not shown) [Example 35, 6-(cyclohexylamino)-N-[10,11-dimethyl-4-oxo-3-(trifluoromethyl)-2,5,7-triazatricyclo-[6.4.0.0^2,6]dodeca-1(12),6,8,10-tetraen-3-yl]pyridine-2-carboxamide] | 2.7
22 | O=C(NC1(C(F)(F)F)C(=O)Nc2nc3cc(Cl)c(Cl)cc3n21)c1cccc(Cl)c1 (stereo not shown) [Example 56, 3-chloro-N-[10,11-dichloro-4-oxo-3-(trifluoromethyl)-2,5,7-triazatricyclo[6.4.0.0^2,6]-dodeca-1(12),6,8,10-tetraen-3-yl]benzamide] | 1.4
